From PubChem BioAssay AID1996
≈ marks a conversion by molar mass, not a printed value.

Details: buffer; pH 7.4; 200.0 µM
`COCC(=O)Nc1ccc2c(c1)OCO2` showed a solubility kinetic of 27.7 µg/mL (≈ 132 µM). Molecule `Cc1ccc(NC(=O)C2CC(O)CN2C(=O)OCc2ccccc2)c(C)c1` (centres undefined) has a solubility kinetic of 37.2 µg/mL (≈ 101 µM). In the case of `CCCCn1c(=O)[nH]c(=O)c2c1nc(-c1ccccn1)n2CC`, the solubility kinetic is reported as 18.7 µg/mL (≈ 59.7 µM). Molecule `Cc1ccc(S(=O)(=O)N2CCC(C(=O)NCC3CCCCC3)CC2)cc1` has a solubility kinetic of 1.6 µg/mL (≈ 4.23 µM). With `CC1(C)CC(=O)C=C(N2CCOCC2)C1` the solubility kinetic was over 31.4 µg/mL. Molecule `COc1ccc(S(=O)(=O)N2CCC(N3CCCC3)CC2)cc1` has a solubility kinetic of 46.7 µg/mL (≈ 144 µM). Work on `Cc1ccnc(NS(=O)(=O)c2cc(C(F)(F)F)ccc2Cl)c1` yielded a solubility kinetic of 1.7 µg/mL (≈ 4.85 µM). Molecule `COc1ccc(Cl)cc1/C=C1/C(=O)ON=C1C` has a solubility kinetic of 29 µg/mL (≈ 115 µM). With `Cc1ccc(/C(O)=C2\C(=O)C(=O)N(C)C2c2ccc([N+](=O)[O-])cc2)cc1` (centres undefined) the solubility kinetic was over 52.9 µg/mL. Molecule `Cc1cccc(NC(=O)N2C[C@H]3C[C@@H](C2)c2cccc(=O)n2C3)c1` has a solubility kinetic of over 48.5 µg/mL. With `Cc1ccccc1Nc1c(-c2cccnc2)nc2ccccn12` the solubility kinetic was 17.6 µg/mL (≈ 58.6 µM). With `CCCN1CCC(N2CCN(c3ccc([N+](=O)[O-])cc3)CC2)CC1` the solubility kinetic was 32.3 µg/mL (≈ 97.2 µM). Molecule `CCCC(=O)OCC(=O)Nc1ccc([N+](=O)[O-])cc1C#N` has a solubility kinetic of over 43.7 µg/mL. Molecule `NC(=O)C[C@H](NC(=O)c1ccc(Cl)cc1)C(=O)OCc1ccccc1` has a solubility kinetic of over 54.1 µg/mL. In the case of `CCOC(=O)c1cn(CC)c2cc(F)c(F)cc2c1=O`, the solubility kinetic is reported as over 42.2 µg/mL. Work on `CCCCc1nnc(NC(=O)COC)s1` yielded a solubility kinetic of over 34.4 µg/mL. `O=C(O)c1nn2cc(CCO)cnc2c1Cl` gave a solubility kinetic of over 36.2 µg/mL. `CCCCc1ccc(NC(=S)N2CCN(c3ccccn3)CC2)cc1` gave a solubility kinetic of 0.8 µg/mL (≈ 2.26 µM). In the case of `CC(C)Oc1ccc(C(=O)NCC(=O)O)cc1`, the solubility kinetic is reported as over 35.6 µg/mL. `COc1ccc(NC(=S)NC2CCCCC2)cn1` gave a solubility kinetic of over 39.8 µg/mL. Molecule `COc1cccc(NC(=S)N2CCN(S(C)(=O)=O)CC2)c1` has a solubility kinetic of over 49.4 µg/mL. `COc1cc(/C=C/c2nc3ccccc3c(=O)[nH]2)cc(Cl)c1O` showed a solubility kinetic of 43.2 µg/mL (≈ 131 µM). For `O=C(CSc1ccc([N+](=O)[O-])cc1)NCC1CCCCC1`, the solubility kinetic was 8.2 µg/mL (≈ 26.6 µM). With `CC(O)c1ccc(OCCN(C)c2ccccn2)cc1` (centres undefined) the solubility kinetic was over 40.9 µg/mL. `O=C(O)[C@H](Cc1ccccc1)NC(=O)N1CCN(c2ccccc2)CC1` showed a solubility kinetic of 51.8 µg/mL (≈ 147 µM). For `CCn1cc(C(=O)Nc2cccc(C)c2)c(=O)c2ccc(C)nc21`, the solubility kinetic was under 0.2 µg/mL. `O=C(Nc1ccccc1)N1CCN(CCc2ccccc2)CC1` showed a solubility kinetic of 41.6 µg/mL (≈ 134 µM). In the case of `COC(OC)c1ccc(C#N)c(SCc2ccccc2)n1`, the solubility kinetic is reported as 9.4 µg/mL (≈ 31.3 µM). With `O=C(OCCC1Oc2cccnc2NC1=O)c1ccc(F)cc1` (centres undefined) the solubility kinetic was 4.8 µg/mL (≈ 15.2 µM). Work on `CN1CCN(CCCNC(=O)CN2C(=O)COc3ccccc32)CC1` yielded a solubility kinetic of 37.6 µg/mL (≈ 109 µM). With `CC(Oc1cccc(Br)c1)C(=O)Nc1cccc(S(=O)(=O)N2CCOCC2)c1` (centres undefined) the solubility kinetic was 16.2 µg/mL (≈ 34.5 µM). Work on `COc1ccc(NC(=O)CS(=O)c2ccc(F)cc2)cc1` (centres undefined) yielded a solubility kinetic of over 46.1 µg/mL. In the case of `O=C(c1cccc(NS(=O)(=O)c2ccccc2)c1)N1CCCC1`, the solubility kinetic is reported as 43.9 µg/mL (≈ 133 µM). Work on `Fc1cccc(NC(=S)Nc2cccc3ccccc23)c1` yielded a solubility kinetic of 19.6 µg/mL (≈ 66.1 µM). `CC1CC(C)CN(C(=O)CNC(=O)c2ccc3ccccc3c2)C1` (centres undefined) gave a solubility kinetic of over 48.7 µg/mL. `Cc1cc(C)cc(-c2nnc(SCC(=O)NC3CC3)o2)c1` gave a solubility kinetic of over 45.5 µg/mL. With `COc1ccc(Cl)cc1NC(=O)NCc1ccccn1` the solubility kinetic was 41.6 µg/mL (≈ 143 µM). Molecule `O=C(CN1C(=O)NC2(CCCCCC2)C1=O)Nc1ccc([N+](=O)[O-])cc1` has a solubility kinetic of 13.3 µg/mL (≈ 36.9 µM). In the case of `O=C(C(=O)N1CCCC1)c1c(-c2ccccc2)[nH]c2ccccc12`, the solubility kinetic is reported as over 47.8 µg/mL. `Cc1c(C(=O)N2CCN(S(=O)(=O)c3ccccc3)CC2)oc2ccc(Br)cc12` gave a solubility kinetic of 6.8 µg/mL (≈ 14.7 µM). `CSc1ccccc1C(=O)C1CCCN(S(=O)(=O)N(C)C)C1` (centres undefined) showed a solubility kinetic of over 51.4 µg/mL. In the case of `OCC1(CCCc2ccccc2)CCN(C2CCC2)CC1`, the solubility kinetic is reported as over 43.1 µg/mL. Work on `Cc1ccc(N(CC(=O)N2CCOCC2)S(C)(=O)=O)cc1Cl` yielded a solubility kinetic of over 52 µg/mL. In the case of `CC1Sc2ccc(C(=O)NCc3ccccc3Cl)cc2NC1=O` (centres undefined), the solubility kinetic is reported as 4.1 µg/mL (≈ 11.8 µM). Work on `O=C(c1ccncc1)N1CCN(S(=O)(=O)c2ccccc2F)CC1` yielded a solubility kinetic of over 52.4 µg/mL. Work on `CC(=O)c1ccc(NC(=O)CCNC(=O)c2ccc(Cl)cc2)cc1` yielded a solubility kinetic of 5.4 µg/mL (≈ 15.7 µM). Molecule `COc1cc(/C=C/C(=O)O)cc(S(=O)(=O)Nc2cc(C(F)(F)F)ccc2N2CCOCC2)c1OC` has a solubility kinetic of over 77.5 µg/mL. For `Cc1ccc(C(=O)N2CCN(c3ccccn3)CC2)cc1`, the solubility kinetic was over 42.2 µg/mL. Work on `O=C(NCc1cccs1)C1CC1` yielded a solubility kinetic of 26.5 µg/mL (≈ 146 µM). `COc1ccc(Br)cc1C(=O)Nc1cccc2ncccc12` gave a solubility kinetic of 1.7 µg/mL (≈ 4.76 µM). `Cc1csc(NC(=O)CCCC(=O)c2ccccc2)n1` showed a solubility kinetic of over 43.3 µg/mL. Work on `C=CCOc1c(Br)cc(/C=C2/C(=O)ON=C2C)cc1OC` yielded a solubility kinetic of 44.3 µg/mL (≈ 126 µM). Work on `O=C(Nc1ccc2c(c1)OCO2)c1ccc(CO)cc1` yielded a solubility kinetic of over 40.7 µg/mL. With `CC(=O)Nc1ccc(C(=O)OCCc2ccccc2)cc1` the solubility kinetic was 38.8 µg/mL (≈ 137 µM). In the case of `O=C(c1ccc(Cl)c(S(=O)(=O)N2CCOCC2)c1)N1CCCC1`, the solubility kinetic is reported as over 53.8 µg/mL. Molecule `Oc1ccc2ccccc2c1CN1CCN(C/C=C/c2ccccc2)CC1` has a solubility kinetic of 10.1 µg/mL (≈ 28.2 µM). Work on `O=C(Nc1ccccc1F)c1ccc2c(c1)OCO2` yielded a solubility kinetic of over 38.9 µg/mL. With `Cn1c(N)c(C(=O)COC(=O)Cc2ccccc2)c(=O)n(C)c1=O` the solubility kinetic was over 49.7 µg/mL. In the case of `Cc1ccc(NC(=O)CSc2ccc3c(c2)OCCO3)nc1`, the solubility kinetic is reported as over 47.5 µg/mL. In the case of `Cc1ccc(C)c(OCC(=O)Nc2ccncc2)c1`, the solubility kinetic is reported as 37 µg/mL (≈ 144 µM). `Cc1nn(CC(=O)OCC(=O)Nc2cccc(S(N)(=O)=O)c2)c(C)c1[N+](=O)[O-]` gave a solubility kinetic of over 61.7 µg/mL. In the case of `O=C(Cc1ccccc1Cl)NC1(O)C(=O)c2ccccc2C1=O`, the solubility kinetic is reported as over 49.5 µg/mL. In the case of `C=CCNC(=S)N1CCN(S(=O)(=O)c2ccc(C)cc2)CC1`, the solubility kinetic is reported as over 50.9 µg/mL. Work on `N#Cc1cccc(C(=O)OCC(=O)NCc2ccco2)c1` yielded a solubility kinetic of 31.2 µg/mL (≈ 110 µM). `CC(=O)c1sc(-c2ccccc2)nc1C` gave a solubility kinetic of 13.9 µg/mL (≈ 64 µM). With `O=c1c2ccccc2ncn1CCCCOc1ccccc1F` the solubility kinetic was 37.3 µg/mL (≈ 119 µM). For `CCNC(=O)C(=O)Nc1cc2c3c(c1)CCC(=O)N3CCC2`, the solubility kinetic was over 45.2 µg/mL. Molecule `CN(C(=O)c1ccc2ccccc2c1)c1ccccn1` has a solubility kinetic of over 39.3 µg/mL. With `CCOC(=O)CC(=O)CSc1nccc(-c2cccnc2)n1` the solubility kinetic was over 47.6 µg/mL. For `COc1ccc(Nc2ccc([N+](=O)[O-])c3nonc23)c(OC)c1`, the solubility kinetic was under 0.2 µg/mL. In the case of `COc1ccc2c(c1OC)CN1CCc3cc4c(cc3C1C2)OCO4` (centres undefined), the solubility kinetic is reported as 2.1 µg/mL (≈ 6.19 µM). In the case of `CC(C)c1ccc(OCc2ccc(C(=O)N(C)C)o2)cc1`, the solubility kinetic is reported as 33.2 µg/mL (≈ 116 µM). For `CC(C)(C)C1CCC(=NNC(=O)C(=O)NCc2cccnc2)CC1` (centres undefined), the solubility kinetic was over 49.6 µg/mL. In the case of `COCCn1c(SCC(=O)NC2CCCC2)nc2cccnc21`, the solubility kinetic is reported as over 50.2 µg/mL. With `Cc1cc(C)n(CC(=O)NCc2ccccc2)c(=O)c1C#N` the solubility kinetic was 43.5 µg/mL (≈ 147 µM). Molecule `CCOC(=O)c1ccc(NC(=S)NCc2ccc(F)cc2)cc1` has a solubility kinetic of 2.2 µg/mL (≈ 6.62 µM). `CCc1nc2ccccc2c(C(=O)NCc2ccc(OC)cc2)c1C` gave a solubility kinetic of 47.9 µg/mL (≈ 143 µM). Work on `O=C(c1ccc([N+](=O)[O-])cc1)N1CCN(C(=O)c2ccco2)CC1` yielded a solubility kinetic of over 49.4 µg/mL. `CN1C(=S)SC2CS(=O)(=O)CC21` (centres undefined) showed a solubility kinetic of over 33.5 µg/mL. In the case of `CN(C(=O)Oc1ccc(F)cc1)c1ccccc1`, the solubility kinetic is reported as 24 µg/mL (≈ 97.9 µM). `O=S(=O)(Nc1cccc(CCc2ccccn2)c1)c1ccc(Cl)cc1` gave a solubility kinetic of 19.1 µg/mL (≈ 51.2 µM). With `O=C(NCCN1CCOCC1)c1cc(-c2cccc(O)c2)on1` the solubility kinetic was over 47.6 µg/mL. For `O=C(Nc1ccc(Cl)c(S(=O)(=O)N2CCOCC2)c1)c1cc2ccccc2oc1=O`, the solubility kinetic was 2.4 µg/mL (≈ 5.35 µM). `CC(C)[C@H](NC(=O)c1ccc([N+](=O)[O-])cc1Cl)C(=O)N1CCN(C/C=C/c2ccccc2)CC1` gave a solubility kinetic of 44.3 µg/mL (≈ 91.3 µM).
